In article PMC9237960, “Identification of a New Antifungal Peptide W1 From a Marine Bacillus amyloliquefaciens Reveals Its Potential in Controlling Fungal Plant Diseases” (Frontiers in Microbiology, 2022):
Values after ≈ are worked out from the molar mass of the structure shown. Peptide text beside a SMILES is read from it.

System: F. oxysporum
Type: cell-based, Fusarium oxysporum
Conditions: pH 9.73
Method: The minimum inhibitory concentration (MIC) of W1 against F. oxysporum and S. sclerotiorum was determined using the paper disk diffusion method ([Wen et al., 2014]; [Rao et al., 2015]). In brief, the purified W1 was diluted into 20 mM piperazine buffer (pH 9.73) with final concentrations of 0.464, 0.232, 0.116, 0.058, and 0.029 μg/μl, respectively. On paper disks placed 2 cm from the hyphal margin of fungus on a PDA plate, 60 μl of serially diluted samples were added. Later, the plate was incubated at 30°C for 24–48 h. The MIC was determined as the lowest concentration of W1 that could inhibit visible mold growth and was calculated as the total peptide concentration added to each paper disk (microgram per disk). The piperazine buffer (20 mM) was used as the blank control. All assays were repeated three times independently.

CC[C@H](C)[C@H](NC(=O)[C@H](CC(C)C)NC(=O)[C@H](CC(C)C)NC(=O)[C@H](Cc1ccccc1)NC(=O)[C@H](Cc1ccc(O)cc1)NC(=O)[C@H](CC(C)C)NC(=O)[C@@H](NC(=O)[C@H](C)NC(=O)[C@H](Cc1ccccc1)NC(=O)[C@H](CCSC)NC(=O)[C@H](CC(C)C)NC(=O)[C@@H](NC(=O)[C@@H](NC(=O)[C@@H]1CCCN1C(=O)[C@@H](NC(=O)[C@@H](NC(=O)[C@@H](NC(=O)CN)[C@@H](C)O)[C@@H](C)CC)C(C)C)[C@@H](C)CC)[C@@H](C)CC)C(C)C)C(=O)N[C@@H](CCCNC(=N)N)C(=O)N1CCC[C@H]1C(=O)N[C@@H](CCC(N)=O)C(=O)O [W1] (H-GTIVPIILMFAVLYFLLIRPQ-OH)
MIC against F. oxysporum: 58 µg/mL (≈ 24 µM)
